Source: patent US5543415A, “Antidepressants” (Kyowa Hakko Kogyo Co., Ltd., priority 1992, dated 1996)

Experiments:
ddY-strain male mice = test: Acute Toxicity Test (minimum lethal dose, oral); assay type: in vivo; conditions: seven days after administration
Description: Test compounds were orally administered to groups of ddY-strain male mice weighing 20±1 g, each group consisting of three mice. Seven days after the administration, minimum lethal dose (MLD) of each compound was determined by observing the mortality.

[1] = test system: clonidine-induced aggressive behavior; test: Effect on Clonidine-Induced Aggressive Behavior (number of biting attacks during 30 minutes); assay type: in vivo, male ddY mice; conditions: po
Description: The effect of a test compound on the aggressive behavior induced by intraperitoneal administration of clonidine was investigated. […] The experiment was performed by using several groups of male ddY mice (weighing 20 to 25 g, Japan SLC), each group consisting of two mice. The test compound was suspended in injectable distilled water (Otsuka Pharmaceutical Co., Ltd.) containing Tween 80 [polyoxyethylene (20) sorbitan monooleate]. Clonidine hydrochloride (Sigma Co.) was dissolved in physiological saline solution (Otsuka Pharmaceutical Co., Ltd.). The test compound suspension and the control suspension were orally administered to separate groups of the mice (0.1 ml per 10 g of body weight). Sixty minutes after the oral administration of the test compound, clonidine hydrochloride (20 mg/kg) was intraperitoneally injected. The number of biting attacks during 30 minutes after clonidine treatment was counted. The effect of the compound was evaluated by comparing the average number of biting attacks of the test compound-administered groups with that of control groups (Statistical comparison: Student's t-test).

Structure (SMILES)	MLD (minimum lethal dose) (ddY-strain male mice) [mg/kg]	also measured
CCCn1c(=O)c2c(nc(/C=C/c3cccc(Cl)c3)n2C)n(CCC)c1=O [Compound 40, (E)-8-(3-Chlorostyryl)-7-methyl-1,3-dipropylxanthine]	> 300	
CCn1c(=O)c2c(nc(/C=C/c3ccc(O)c(O)c3)n2C)n(CC)c1=O [Compound 182, (E)-8-(3,4-Dihydroxystyryl)-1,3-diethyl-7-methylxanthine]	> 100	
COc1ccc(/C=C/c2nc3c(c(=O)n(C)c(=O)n3C)n2C)cc1Br [Compound 116, (E)-8-(3-Bromo-4-methoxystyryl)caffeine]	> 300	
CCCn1c(=O)c2[nH]c(/C=C/c3cc(OC)c(OC)cc3Br)nc2n(CCC)c1=O [Compound 58, (E)-8-(2-Bromo-4,5-dimethoxystyryl)-1,3-dipropylxanthine]	> 300	
CCCn1c(=O)c2[nH]c(/C=C/c3cccc(OC)c3OC)nc2n(CCC)c1=O [Compound 29, (E)-8-(2,3-Dimethoxystyryl)-1,3-dipropylxanthine]	> 100	
CCn1c(=O)c2c(nc(/C=C/c3cc(C)ccc3C)n2C)n(CC)c1=O [Compound 110, (E)-8-(2,5-Dimethylstyryl)-1,3-diethyl-7-methylxanthine]	> 300	
CCn1c(=O)c2[nH]c(/C=C/c3cc(C)c(OC)cc3C)nc2n(CC)c1=O [Compound 83, (E)-1,3-Diethyl-8-(4-methoxy-2,5-dimethylstyryl)xanthine]	> 300	
CCn1c(=O)c2c(nc(/C=C/c3ccc(F)c(F)c3)n2C)n(CC)c1=O [Compound 112, (E)-8-(3,4-Difluorostyryl)-1,3-diethyl-7-methylxanthine]	> 300	
CCCn1c(=O)c2[nH]c(/C=C/c3ccc(C)c(C)c3)nc2n(CCC)c1=O [Compound 31, (E)-8-(3,4-Dimethylstyryl)-1,3-dipropylxanthine]	> 100	
CCCn1c(=O)c2[nH]c(/C=C/c3ccc(OC)c4ccccc34)nc2n(CCC)c1=O [Compound 62, (E)-8-[2-(4-Methoxynaphthyl)vinyl]-1,3-dipropylxanthine]	> 100	
CCOC(=O)COc1ccc(/C=C/c2nc3c(c(=O)n(CC)c(=O)n3CC)n2C)cc1 [Compound 189, (E)-8-(4-Ethoxycarbonylmethoxystyryl)-1,3-diethyl-7-methylxanthine]	> 100	
CCCn1c(=O)c2c(nc(/C=C/c3cc(C)c(OC)cc3C)n2C)n(CCC)c1=O [Compound 46, (E)-8-(4-Methoxy-2,5-dimethylstyryl)-7-methyl-1,3-dipropylxanthine]	> 300	
CCCn1c(=O)c2c(nc(/C=C/c3cccc(OC)c3OC)n2C)n(CCC)c1=O [Compound 30, (E)-8-(2,3-Dimethoxystyryl)-7-methyl-1,3-dipropylxanthine]	> 300	
CCn1c(=O)c2[nH]c(/C=C/c3cccc(Cl)c3)nc2n(CC)c1=O [Compound 131, (E)-8-(3-Chlorostyryl)-1,3-diethylxanthine]	> 100	
CCCn1c(=O)c2c(nc(/C=C/c3cccc([N+](=O)[O-])c3)n2C)n(CCC)c1=O [Compound 36, (E)-7-Methyl-8-(3-nitrostyryl)-1,3-dipropylxanthine]	> 100	
CCn1c(=O)c2[nH]c(/C=C/c3ccc(OC)c(C)c3C)nc2n(CC)c1=O [Compound 81, (E)-1,3-Diethyl-8-(4-methoxy-2,3-dimethylstyryl)xanthine]	> 300	
COc1cccc(/C=C/c2nc3c(c(=O)n(C)c(=O)n3C)n2C)c1OC [Compound 98, (E)-8-(2,3-Dimethoxystyryl)caffeine]	> 300	
CCn1c(=O)c2c(nc(/C=C/c3cccc(C(F)(F)F)c3)n2C)n(CC)c1=O [Compound 164, (E)-1,3-Diethyl-7-methyl-8-(3-trifluoromethylstyryl)xanthine]	> 100	
Cn1c(=O)c2[nH]cnc2n(C)c1=O [theophylline, reference compound]		Number of the Biting Attacks (mean ± S.E.M.), Test Compound-Treated Group ([1]; 10 mg/kg, 60 min before clonidine 20 mg/kg ip, 30 min count): 18.6 ± 3.58; response vs control in vivo at 10 mg/kg ([1]; Mus musculus, read-out: Number of the Attacks of Test Compound-Treated Group/Number of the Attacks of Control Group): 520%
CCn1c(=O)c2[nH]c(/C=C/c3cc(OC)c(OC)cc3Br)nc2n(CC)c1=O [Compound 117, (E)-8-(2-Bromo-4,5-dimethoxystyryl)-1,3-diethylxanthine]	> 100	
CCCn1c(=O)c2c(nc(/C=C/c3ccc(OCC)c(OCC)c3)n2C)n(CCC)c1=O [Compound 55, (E)-8-(3,4-Diethoxystyryl)-7-methyl-1,3-dipropylxanthine]	> 100	

Structure (SMILES)	MLD (minimum lethal dose) (ddY-strain male mice) [mg/kg]	also measured
CCCn1c(=O)c2c(nc(/C=C/c3ccc(C)c(C)c3)n2C)n(CCC)c1=O [Compound 32, (E)-8-(3,4-Dimethylstyryl)-7-methyl-1,3-dipropylxanthine]	> 300	
CCCn1c(=O)c2nc(/C=C/c3cccc(Cl)c3)[nH]c2n(CCC)c1=O [Compound 39, (E)-8-(3-Chlorostyryl)-1,3-dipropylxanthine]	> 100	
CCCn1c(=O)c2[nH]c(/C=C/c3ccc(OC)cc3OC)nc2n(CCC)c1=O [Compound 25, (E)-8-(2,4-Dimethoxystyryl)-1,3-dipropylxanthine]	> 100	
COc1ccc(/C=C/c2nc3c(c(=O)n(C)c(=O)n3C)n2C)c(OC)c1 [Compound 100, (E)-8-(2,4-Dimethoxystyryl)caffeine]	> 300	
CCn1c(=O)c2[nH]c(/C=C/c3ccccc3F)nc2n(CC)c1=O [Compound 167, (E)-1,3-Diethyl-8-(2-fluorostyryl)xanthine]	> 100	
CCCn1c(=O)c2[nH]c(/C=C/c3ccccc3Cl)nc2n(CCC)c1=O [Compound 41, (E)-8-(2-Chlorostyryl)-1,3-dipropylxanthine]	> 100	
CCn1c(=O)c2c(nc(/C=C/c3cccc(OC)c3[N+](=O)[O-])n2C)n(CC)c1=O [Compound 122, (E)-1,3-Diethyl-8-(3-methoxy-2-nitrostyryl)-7-methyl-xanthine]	> 100	
CCn1c(=O)c2c(nc(/C=C/c3cc(OC)c(OC)cc3[N+](=O)[O-])n2C)n(CC)c1=O [Compound 120, (E)-8-(4,5-Dimethoxy-2-nitrostyryl)-1,3-diethyl-7-methylxanthine]	> 300	
CCCOc1ccc(/C=C/c2nc3c([nH]2)c(=O)n(CC)c(=O)n3CC)cc1 [Compound 125, (E)-1,3-Diethyl-8-(4-propoxystyryl)xanthine]	> 100	
CCCCn1c(=O)c2c(nc(/C=C/c3cc(OC)c(OC)c(OC)c3)n2C)n(CCCC)c1=O [Compound 9, (E)-1,3-Dibutyl-7-methyl-8-(3,4,5-trimethoxystyryl)xanthine]	> 300	
CCn1c(=O)c2[nH]c(/C=C/c3cccc(Oc4ccccc4)c3)nc2n(CC)c1=O [Compound 191, (E)-1,3-Diethyl-8-(3-phenoxystyryl)xanthine]	> 100	
CCn1c(=O)c2[nH]c(/C=C/c3ccc4c(c3)OCCO4)nc2n(CC)c1=O [Compound 89, (E)-8-[2-(1,4-Benzodioxan-6-yl)vinyl]-1,3-diethylxanthine]	> 100	
CCn1c(=O)c2c(nc(/C=C/c3cc(F)cc(F)c3)n2C)n(CC)c1=O [Compound 156, (E)-8-(3,5-Difluorostyryl)-1,3-diethyl-7-methylxanthine]	> 100	
COc1ccc(/C=C/c2nc3c([nH]2)c(=O)n(C)c(=O)n3C)c(Cl)c1OC [Compound 107, (E)-8-(2-Chloro-3,4-dimethoxystyryl)theophylline]	> 100	
CCn1c(=O)c2c(nc(/C=C/c3cccc([N+](=O)[O-])c3)n2C)n(CC)c1=O [Compound 160, (E)-1,3-Diethyl-7-methyl-8-(3-nitrostyryl)xanthine]	> 100	
C=CCn1c(=O)c2nc(/C=C/c3cc(OC)c(OC)c(OC)c3)[nH]c2n(CC=C)c1=O [Compound 12, (E)-1,3-diallyl-8-(3,4,5-trimethoxystyryl)xanthine]	> 300	
CCn1c(=O)c2[nH]c(/C=C/c3cccc(Br)c3)nc2n(CC)c1=O [Compound 161, (E)-8-(3-Bromostyryl)-1,3-diethylxanthine]	> 100	
CCn1c(=O)c2c(nc(/C=C/c3ccc(OCCCCN)cc3)n2C)n(CC)c1=O [Compound 188, (E)-8-[4-(4-Aminobutoxy)styryl]-1,3-diethyl-7-methylxanthine]	> 100	
COc1ccc(/C=C/c2nc3c([nH]2)c(=O)n(C)c(=O)n3C)c(C)c1C [Compound 93, (E)-8-(4-Methoxy-2,3-dimethylstyryl)theophylline]	> 100	
CCn1c(=O)c2[nH]c(/C=C/c3ccc(-c4ccccc4)cc3)nc2n(CC)c1=O [Compound 170, (E)-1,3-Diethyl-8-(4-phenylstyryl)xanthine]	> 100	
CCn1c(=O)c2[nH]c(/C=C/c3cccc(OC)c3[N+](=O)[O-])nc2n(CC)c1=O [Compound 121, (E)-1,3-Diethyl-8-(3-methoxy-2-nitrostyryl)xanthine]	> 300	
